Here are results for 18 compounds from patent publication US8962626B2, “Thienopyridazine compounds, their preparations, pharmaceutical compositions and uses” (Zhejiang Medicine Co., Ltd. Xinchang Pharmaceutical Factory, priority 2008, dated 2015).

Like-named read-outs stand apart in the source and are kept apart here.

The subject of one series is Human colon cancer HT-29. The series is described as follows: Cytotoxicity in vitro, SRB and MTT methods, 72 h. In kind it is cell-based. The note with it: HT-29 cells, read-out: Anti-cancer Activity IC50 In vitro, HT-29. The method, then: (§1) Some of the above compounds are tested in vitro and in vivo for their antitumor activities. Among these tests, the cytotoxicity is tested in vitro using SRB and MTT methods for 72 h.
In general terms: Formazan colour is commonly taken as a measure of viable cells.

The subject of series [1] is Human ovarian cancer (A2780). Nature of the series: Cytotoxicity in vitro, SRB and MTT methods, 72 h. Conditions: A2780 cells, read-out: Anti-cancer Activity IC50 In vitro, A2780. Type of series: cell-based. The method, then: as §1
The subject of series [2] is Human poorly differentiated gastric adenocarcinoma (BGC-823). Nature of the series: Cytotoxicity in vitro, SRB and MTT methods, 72 h. Type of series: cell-based. The note with it: BGC-823 cells, read-out: Anti-cancer Activity IC50 In vitro, BGC-823. As for the experimental part:
as §1

In a further series the test system is Mouse lung cancer (3LL). Nature of the series: Cytotoxicity in vitro, SRB and MTT methods, 72 h. The note with it: 3LL cells, read-out: Anti-cancer Activity IC50 In vitro, 3LL. Type of series: cell-based. The method, then:
as §1

For series [3], the system named is transplanted tumor of human colon cancer HT-99. Nature of the series: Efficacy on transplanted tumor of human colon cancer HT-99 on nude mice. In kind it is in vivo. Conditions: compounds 60 mg/kg ip d0,1, GCT 20, ADR 4 mg/kg ip, combinations GCT or CPT-11 20 / ADR 4 ip + compound 25 mg/kg iv; for RTV (relative tumor volume) X ± SD / T/C: 17th day; for TV dn: dn = 17th day after administration.

A further series has as its system mouse S180 sarcoma. Nature of the series: Growth inhibition effect on mouse S180 sarcoma. Type of series: in vivo. Conditions: mouse S180, 50 mg/kg ip; for Rate of inhibition: N = 7; for Body Weight without Tumor / Ending Body Weight / Tumor Weight / Starting Body Weight: N = 7, X ± SD; for Starting Body Weight: baseline.

As for “2-(4-bromophenyl)-4-(3-α-thiopyranmethyl)-thieno[2,3-d]pyridazinyl-7-formamide [XXXXVI]”, the IC50 in the series on Human colon cancer HT-29 is more than 100 µM; in series [1] it was 30.3 µM; in series [2], 11.1 µM; in the series on Mouse lung cancer (3LL) it was more than 100 µM.

For `COc1cccc2c1C(=O)c1c(O)c3c(c(O)c1C2=O)C[C@@](O)(C(=O)CO)C[C@@H]3O[C@H]1C[C@H](N)[C@H](O)[C@H](C)O1` [ADR, Adriamycin], in series [3], the “RTV (relative tumor volume) X ± SD” value is on record as 4.38 ± 1.38, the T/C turned out to be 64% and the TV dn was 667 ± 67 mm^3.

`NC(=O)c1nnc(CC2CCCNC2)c2cc(-c3ccc(F)cc3)sc12` (stereo not drawn) [Compound I, 2-(4-fluorophenyl)-4-(3-piperidinemethyl)-thieno[2,3-d]pyridazinyl-7-formamide]: the concentration for half-maximal inhibition (IC50) was determined as 4.22 µM in the series on Human colon cancer HT-29 (Homo sapiens, HT-29, 72 h); 6.4 µM in series [1] (Homo sapiens, A2780, 72 h); 3.35 µM in series [2] (Homo sapiens, BGC-823, 72 h); 1.4 µM with Mouse lung cancer (3LL) (Mus musculus, 3LL).

On to `NC(=O)c1nnc(CC2CCNC2)c2cc(-c3ccc(F)cc3)sc12` (stereo not drawn) [Compound XX, 2-(4-fluorophenyl)-4-(3-pyrrolidinemethyl)-thieno[2,3-d]pyridazinyl-7-formamide], for which, in the series on mouse S180 sarcoma, the Rate of inhibition came to 37.23%, the “Body Weight without Tumor” value was found to be 19.33 ± 1.60 g, the “Ending Body Weight” value worked out at 21.19 ± 1.40 g and the “Tumor Weight” value was found to be 1.86 ± 0.26 g. Besides, the “Starting Body Weight” value in the series on mouse S180 sarcoma worked out at 19.50 ± 0.89 g.

Regarding `Nc1ccn([C@@H]2O[C@H](CO)[C@@H](O)C2(F)F)c(=O)n1` [GCT, Gemcitabine], in series [3], the “RTV (relative tumor volume) X ± SD” value worked out at 1.64 ± 0.44, the T/C was 37% and the TV dn was 463 ± 74 mm^3.

Turning to `NC(=O)c1nnc(CC2CCNCC2)c2cc(-c3ccc(Cl)cc3)sc12` [XI, 2-(4-chlorophenyl)-4-(4-piperidinemethyl)-thieno[2,3-d]pyridazinyl-7-formamide], the IC50 stood at 10.7 µM in the series on Human colon cancer HT-29 (Homo sapiens, HT-29, 72 h); 11.8 µM in series [1] (Homo sapiens, A2780, 72 h); 9.24 µM in series [2] (Homo sapiens, BGC-823, 72 h); 8.43 µM in the series on Mouse lung cancer (3LL) (Mus musculus, 3LL).

With `NC(=O)c1nnc(CC2CCCNC2)c2cc(-c3ccc(Cl)cc3)sc12` (stereo not drawn) [XIII, 2-(4-chlorophenyl)-4-(R-3-piperidinemethyl)-thieno[2,3-d]pyridazinyl-7-formamide], the half-inhibitory concentration (IC50) worked out at 0.73 µM with Human colon cancer HT-29; 1.18 µM in series [1]; 2.62 µM in series [2] (Homo sapiens, BGC-823, 72 h); 1.24 µM with Mouse lung cancer (3LL).

In the case of `CNC(=O)c1nnc(CC2CCCNC2)c2cc(-c3ccc(Cl)cc3)sc12` (stereo not drawn) [XIV, 2-(4-chlorophenyl)-4-(3-piperidinemethyl)-thieno[2,3-d]pyridazinyl-7-N-methyl formamide], the IC50 was 16.8 µM in the series with Human colon cancer HT-29 (Homo sapiens, HT-29, 72 h); 6.01 µM in series [1] (Homo sapiens, A2780, 72 h); 30.5 µM in series [2] (Homo sapiens, BGC-823, 72 h); 8.59 µM in the series on Mouse lung cancer (3LL) (Mus musculus, 3LL).

As to `CN(C)C(=O)c1nnc(CC2CCCNC2)c2cc(-c3ccc(Cl)cc3)sc12` (stereo not drawn) [XV, 2-(4-chlorophenyl)-4-(3-piperidinemethyl)-thieno[2,3-d]pyridazinyl-7-N,N-dimethyl formamide], the IC50 in series [2] (Homo sapiens, BGC-823, 72 h) came to 2.25 µM.

On to `NC(=O)c1nnc(CC2CCNC2)c2cc(-c3ccc(Cl)cc3)sc12` (stereo not drawn) [XXI, 2-(4-chlorophenyl)-4-(3-pyrrolidinemethyl)-thieno[2,3-d]pyridazinyl-7-formamide], for which the IC50 with Human colon cancer HT-29 (Homo sapiens, HT-29, 72 h) came to 8.68 µM.

Regarding `NC(=O)c1nnc(CC2CCOC2)c2cc(-c3ccc(F)cc3)sc12` (stereo not drawn) [XXIII, 2-(4-fluorophenyl)-4-(3-tetrahydrofuranmethyl)-thieno[2,3-d]pyridazinyl-7-formamide], the IC50 in the series with Human colon cancer HT-29 (Homo sapiens, HT-29, 72 h) was 5.57 µM; in series [1] (Homo sapiens, A2780, 72 h), more than 100 µM; in series [2] (Homo sapiens, BGC-823, 72 h), more than 100 µM; in the series on Mouse lung cancer (3LL) (Mus musculus, 3LL) it was more than 100 µM.

Regarding `NC(=O)c1nnc(CC2CCOC2)c2cc(-c3ccc(Cl)cc3)sc12` (stereo not drawn) [XXIV, 2-(4-chlorophenyl)-4-(3-tetrahydrofuranmethyl)-thieno[2,3-d]pyridazinyl-7-formamide], in the series with mouse S180 sarcoma, the Rate of inhibition is reported as 45.45%, the “Body Weight without Tumor” value is listed as 21.56 ± 1.48 g, the “Ending Body Weight” value came out at 23.18 ± 1.66 g and the “Tumor Weight” value was found to be 1.62 ± 0.26 g. For the same compound, the “Starting Body Weight” value with mouse S180 sarcoma stood at 19.39 ± 0.60 g.

In the case of `NC(=O)c1nnc(CC2CCSC2)c2cc(-c3ccc(F)cc3)sc12` (stereo not drawn) [XXVI, 2-(4-fluorophenyl)-4-(3-tetrahydrothiophenemethyl)-thieno[2,3-d]pyridazinyl-7-formamide], the half-maximal inhibitory concentration (IC50) in the series with Human colon cancer HT-29 (Homo sapiens, HT-29, 72 h) was more than 100 µM; in series [1] (Homo sapiens, A2780, 72 h), more than 100 µM; in series [2] (Homo sapiens, BGC-823, 72 h), 24.6 µM; in the series with Mouse lung cancer (3LL) (Mus musculus, 3LL), more than 100 µM.

`CNC(=O)c1nnc(CC2CCSC2)c2cc(-c3ccc(Cl)cc3)sc12` (stereo not drawn) [XXXIV, 2-(4-chlorophenyl)-4-(3-tetrahydrothiophenemethyl)-thieno[2,3-d]pyridazinyl-7-N-methyl formamide]: the IC50 was more than 100 µM with Human colon cancer HT-29 (Homo sapiens, HT-29, 72 h); more than 100 µM in series [1] (Homo sapiens, A2780, 72 h); 74.5 µM in series [2] (Homo sapiens, BGC-823, 72 h); 50.6 µM in the series on Mouse lung cancer (3LL) (Mus musculus, 3LL).

Take `NC(=O)c1nnc(Cc2cccnc2)c2cc(-c3ccc(F)cc3)sc12` [XXXVIII, 2-(4-fluorophenyl)-4-(3-pyridinemethyl)-thieno[2,3-d]pyridazinyl-7-formamide]: the half-maximal inhibitory concentration (IC50) in the series on Human colon cancer HT-29 (Homo sapiens, HT-29, 72 h) amounted to 1.33 µM; in series [1] (Homo sapiens, A2780, 72 h), 3.13 µM; in series [2] (Homo sapiens, BGC-823, 72 h), 8.17 µM; in the series with Mouse lung cancer (3LL) (Mus musculus, 3LL), 3.13 µM.

As for `NC(=O)c1nnc(Cc2ccoc2)c2cc(-c3ccc(F)cc3)sc12` [XXXXXVIII, 2-(4-fluorophenyl)-4-(3-furanmethyl)-thieno[2,3-d]pyridazinyl-7-formamide], the IC50 with Human colon cancer HT-29 (Homo sapiens, HT-29, 72 h) stood at 21.8 µM; in series [1] (Homo sapiens, A2780, 72 h), 13.9 µM; in series [2] (Homo sapiens, BGC-823, 72 h), 16.4 µM; in the series with Mouse lung cancer (3LL) (Mus musculus, 3LL) it was 21.4 µM.

In the case of `CNC(=O)c1nnc(Cc2ccoc2)c2cc(-c3ccc(Cl)cc3)sc12` [XXXXXXIX, 2-(4-chlorophenyl)-4-(3-furanmethyl)-thieno[2,3-d]pyridazinyl-7-N-methyl formamide], the IC50 was determined as 9.48 µM in the series with Human colon cancer HT-29 (Homo sapiens, HT-29, 72 h); 7.11 µM in series [1] (Homo sapiens, A2780, 72 h); 17 µM in series [2] (Homo sapiens, BGC-823, 72 h); 3.31 µM with Mouse lung cancer (3LL) (Mus musculus, 3LL).

`CN(C)C(=O)c1nnc(Cc2ccoc2)c2cc(-c3ccc(Cl)cc3)sc12` [XXXXXXX, 2-(4-chlorophenyl)-4-(3-furanmethyl)-thieno[2,3-d]pyridazinyl-7-N,N-dimethyl formamide]: the half-maximal inhibitory concentration (IC50) in the series on Human colon cancer HT-29 (Homo sapiens, HT-29, 72 h) is more than 100 µM; in series [1] (Homo sapiens, A2780, 72 h), more than 100 µM; in series [2] (Homo sapiens, BGC-823, 72 h), 5.45 µM; in the series with Mouse lung cancer (3LL) (Mus musculus, 3LL) it was more than 100 µM.

As usually defined, the IC50 is the concentration that inhibits the measured activity by half. The term T/C denotes the ratio of treated to control.
